Test results published in publication PMC6394493 (Cancer Chemotherapy and Pharmacology, 2018).

Test: Safety assessment: adverse events
Format: in vivo, Japanese patients
Conditions: for Blood alkaline phosphatase increased, All grades / Blood alkaline phosphatase increased, Grade ¾ / Cancer pain, All grades / Cancer pain, Grade ¾ / Decreased appetite, All grades / Decreased appetite, Grade ¾ / Diarrhea, All grades / Diarrhea, Grade ¾ / Dysgeusia, All grades / Dysgeusia, Grade ¾ / Fatigue, All grades / Fatigue, Grade ¾ / Leukopenia, All grades / Leukopenia, Grade ¾ / Lymphopenia, All grades / Lymphopenia, Grade ¾ / Nausea, All grades / Nausea, Grade ¾ / Neutropenia, All grades / Neutropenia, Grade ¾ / Pyrexia, All grades / Pyrexia, Grade ¾ / Rash, All grades / Rash, Grade ¾ / Stomatitis, All grades / Stomatitis, Grade ¾ / Thrombocytopenia, All grades / Thrombocytopenia, Grade ¾ / Vomiting, All grades / Vomiting, Grade ¾ / AEs Total, All grades / AEs Total, Grade ¾ / Alanine aminotransferase increased, All grades / Alanine aminotransferase increased, Grade ¾: regardless of study drug relationship
Description: Safety assessments consisted of monitoring and recording of all AEs, including laboratory abnormalities and vital signs. DLTs were defined as an AE or a laboratory abnormality assessed as related to the study drug and occurring within the first 28 days of treatment (Cycle 1), as defined in Supplemental Table S1.

## Cn1c(=O)n(-c2ccc(C(C)(C)C#N)cc2)c2c3cc(-c4cnc5ccccc5c4)ccc3ncc21 [BEZ235]
Qd 1000 mg (n = 8)
  Blood alkaline phosphatase increased, All grades: 2 (25.0) n (%)
  Blood alkaline phosphatase increased, Grade ¾: 0 n (%)
  Cancer pain, All grades: 2 (25.0) n (%)
  Cancer pain, Grade ¾: 0 n (%)
  Decreased appetite, All grades: 7 (87.5) n (%)
  Decreased appetite, Grade ¾: 0 n (%)
  Diarrhea, All grades: 7 (87.5) n (%)
  Diarrhea, Grade ¾: 0 n (%)
  Dysgeusia, All grades: 2 (25.0) n (%)
  Dysgeusia, Grade ¾: 0 n (%)
  Fatigue, All grades: 6 (75.0) n (%)
  Fatigue, Grade ¾: 1 (12.5) n (%)
  Leukopenia, All grades: 2 (25.0) n (%)
  Leukopenia, Grade ¾: 1 (12.5) n (%)
  Lymphopenia, All grades: 2 (25.0) n (%)
  Lymphopenia, Grade ¾: 2 (25.0) n (%)
  Nausea, All grades: 7 (87.5) n (%)
  Nausea, Grade ¾: 0 n (%)
  Neutropenia, All grades: 1 (12.5) n (%)
  Neutropenia, Grade ¾: 1 (12.5) n (%)
  Pyrexia, All grades: 2 (25.0) n (%)
  Pyrexia, Grade ¾: 0 n (%)
  Rash, All grades: 5 (62.5) n (%)
  Rash, Grade ¾: 1 (12.5) n (%)
  Stomatitis, All grades: 3 (37.5) n (%)
  Stomatitis, Grade ¾: 0 n (%)
  Thrombocytopenia, All grades: 4 (50.0) n (%)
  Thrombocytopenia, Grade ¾: 0 n (%)
  Vomiting, All grades: 4 (50.0) n (%)
  Vomiting, Grade ¾: 0 n (%)
Qd 1200 mg (n = 6)
  AEs Total, All grades: 6 (100.0) n (%)
  AEs Total, Grade ¾: 6 (100.0) n (%)
  Alanine aminotransferase increased, All grades: 1 (16.7) n (%)
  Alanine aminotransferase increased, Grade ¾: 0 n (%)
  Blood alkaline phosphatase increased, All grades: 1 (16.7) n (%)
  Blood alkaline phosphatase increased, Grade ¾: 1 (16.7) n (%)
  Cancer pain, All grades: 1 (16.7) n (%)
  Cancer pain, Grade ¾: 0 n (%)
  Decreased appetite, All grades: 6 (100.0) n (%)
  Decreased appetite, Grade ¾: 1 (16.7) n (%)
  Diarrhea, All grades: 6 (100.0) n (%)
  Diarrhea, Grade ¾: 0 n (%)
  Dysgeusia, All grades: 3 (50.0) n (%)
  Dysgeusia, Grade ¾: 0 n (%)
  Fatigue, All grades: 4 (66.7) n (%)
  Fatigue, Grade ¾: 2 (33.3) n (%)
  Leukopenia, All grades: 1 (16.7) n (%)
  Leukopenia, Grade ¾: 0 n (%)
  Lymphopenia, All grades: 1 (16.7) n (%)
  Lymphopenia, Grade ¾: 1 (16.7) n (%)
  Nausea, All grades: 5 (83.3) n (%)
  Nausea, Grade ¾: 0 n (%)
  Neutropenia, All grades: 2 (33.3) n (%)
  Neutropenia, Grade ¾: 0 n (%)
  Pyrexia, All grades: 2 (33.3) n (%)
  Pyrexia, Grade ¾: 0 n (%)
  Rash, All grades: 1 (16.7) n (%)
  Rash, Grade ¾: 1 (16.7) n (%)
  Stomatitis, All grades: 6 (100.0) n (%)
  Stomatitis, Grade ¾: 1 (16.7) n (%)
  Thrombocytopenia, All grades: 0 n (%)
  Thrombocytopenia, Grade ¾: 0 n (%)
  Vomiting, All grades: 5 (83.3) n (%)
  Vomiting, Grade ¾: 0 n (%)
Qd 1400 mg (n = 7)
  AEs Total, All grades: 7 (100.0) n (%)
  AEs Total, Grade ¾: 5 (71.4) n (%)
  Alanine aminotransferase increased, All grades: 3 (42.9) n (%)
  Alanine aminotransferase increased, Grade ¾: 1 (14.3) n (%)
  Blood alkaline phosphatase increased, All grades: 2 (28.6) n (%)
  Blood alkaline phosphatase increased, Grade ¾: 1 (14.3) n (%)
  Cancer pain, All grades: 0 n (%)
  Cancer pain, Grade ¾: 0 n (%)
  Decreased appetite, All grades: 6 (85.7) n (%)
  Decreased appetite, Grade ¾: 0 n (%)
  Diarrhea, All grades: 7 (100.0) n (%)
  Diarrhea, Grade ¾: 1 (14.3) n (%)
  Dysgeusia, All grades: 2 (28.6) n (%)
  Dysgeusia, Grade ¾: 0 n (%)
  Fatigue, All grades: 4 (57.1) n (%)
  Fatigue, Grade ¾: 0 n (%)
  Leukopenia, All grades: 2 (28.6) n (%)
  Leukopenia, Grade ¾: 1 (14.3) n (%)
  Lymphopenia, All grades: 4 (57.1) n (%)
  Lymphopenia, Grade ¾: 1 (14.3) n (%)
  Nausea, All grades: 6 (85.7) n (%)
  Nausea, Grade ¾: 0 n (%)
  Neutropenia, All grades: 4 (57.1) n (%)
  Neutropenia, Grade ¾: 3 (42.9) n (%)
  Pyrexia, All grades: 0 n (%)
  Pyrexia, Grade ¾: 0 n (%)
  Rash, All grades: 4 (57.1) n (%)
  Rash, Grade ¾: 0 n (%)
  Stomatitis, All grades: 5 (71.4) n (%)
  Stomatitis, Grade ¾: 0 n (%)
  Thrombocytopenia, All grades: 3 (42.9) n (%)
  Vomiting, All grades: 5 (71.4) n (%)
  Vomiting, Grade ¾: 0 n (%)
Qd All patients (N = 27)
  AEs Total, All grades: 27 (100.0) n (%)
  AEs Total, Grade ¾: 18 (66.7) n (%)
  Alanine aminotransferase increased, All grades: 6 (22.2) n (%)
  Alanine aminotransferase increased, Grade ¾: 1 (3.7) n (%)
  Blood alkaline phosphatase increased, All grades: 6 (22.2) n (%)
  Blood alkaline phosphatase increased, Grade ¾: 2 (7.4) n (%)
  Cancer pain, All grades: 7 (25.9) n (%)
  Cancer pain, Grade ¾: 1 (3.7) n (%)
  Decreased appetite, All grades: 24 (88.9) n (%)
  Decreased appetite, Grade ¾: 1 (3.7) n (%)
  Diarrhea, All grades: 25 (92.6) n (%)
  Diarrhea, Grade ¾: 1 (3.7) n (%)
  Dysgeusia, All grades: 8 (29.6) n (%)
  Dysgeusia, Grade ¾: 0 n (%)
  Fatigue, All grades: 17 (63.0) n (%)
  Fatigue, Grade ¾: 3 (11.1) n (%)
  Leukopenia, All grades: 6 (22.2) n (%)
  Leukopenia, Grade ¾: 2 (7.4) n (%)
  Lymphopenia, All grades: 10 (37.0) n (%)
  Lymphopenia, Grade ¾: 7 (25.9) n (%)
  Nausea, All grades: 22 (81.5) n (%)
  Nausea, Grade ¾: 0 n (%)
  Neutropenia, All grades: 8 (29.6) n (%)
  Neutropenia, Grade ¾: 4 (14.8) n (%)
  Pyrexia, All grades: 6 (22.2) n (%)
  Pyrexia, Grade ¾: 0 n (%)
  Rash, All grades: 11 (40.7) n (%)
  Rash, Grade ¾: 2 (7.4) n (%)
  Stomatitis, All grades: 18 (66.7) n (%)
  Stomatitis, Grade ¾: 1 (3.7) n (%)
  Thrombocytopenia, All grades: 8 (29.6) n (%)
  Thrombocytopenia, Grade ¾: 3 (11.1) n (%)
  Vomiting, All grades: 17 (63.0) n (%)
  Vomiting, Grade ¾: 0 n (%)
Qd dosing group
  patients with study drug-related serious adverse events (SAEs): two
Qd dosing, 18 patients
  patients with Grade 3 or 4 AEs: 66.7%
Qd group, four patients
  grade 3 or 4 lymphopenia suspected to be study drug-related: 14.8%
Qd group, seven patients
  study drug discontinuation due to AEs: 25.9%
Qd group, three patients
  grade 3 or 4 fatigue suspected to be study drug-related: 11.1%
  grade 3 or 4 neutropenia suspected to be study drug-related: 11.1%
Qd group, two patients
  grade 3 or 4 rash suspected to be study drug-related: 7.4%
  grade 3 or 4 thrombocytopenia suspected to be study drug-related: 7.4%
